Measured values taken from patent US12285394B2, “Ketogenic compounds, compositions, methods and use thereof” (9500-0535 QUEBEC INC., priority 2018, dated 2025).

Assay: pH of the compounds
Type: physicochemical

pKa: ~4.4
SMILES: CC(O)CC(=O)O (stereo not drawn) [BHB, β-hydroxybutyric acid]
